{"source": "patent US6852740B2", "about": "“Pyrazole derivatives as p38 kinase inhibitors” (G. D. Searle & Co., priority 1997, dated 2005)", "key": {"human p38 kinase alpha [1]": {"molecular_target": "T1, human p38 kinase alpha (Homo sapiens, UniProt Q16539)", "T1 construct": "The coding region of the human p38a cDNA was obtained by PCR-amplification from RNA; made in house; host or cells: E. coli DH10B", "T1 sequence (Q16539 whole entry)": "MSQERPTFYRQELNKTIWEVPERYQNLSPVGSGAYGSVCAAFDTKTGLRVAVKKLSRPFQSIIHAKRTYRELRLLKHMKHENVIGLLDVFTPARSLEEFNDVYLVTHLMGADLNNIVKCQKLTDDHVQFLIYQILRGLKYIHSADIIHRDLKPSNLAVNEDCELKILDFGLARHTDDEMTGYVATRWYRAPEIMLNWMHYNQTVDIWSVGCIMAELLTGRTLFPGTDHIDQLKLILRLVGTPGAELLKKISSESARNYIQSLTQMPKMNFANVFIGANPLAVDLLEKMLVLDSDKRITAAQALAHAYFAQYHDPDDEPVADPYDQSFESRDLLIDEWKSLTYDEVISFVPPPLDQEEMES", "assay": "p38α in vitro kinase assay, PHAS-I procedure", "assay_type": "biochemical", "experimental": "The ability of compounds to inhibit human p38 kinase alpha was evaluated using two in vitro assay methods. In the first method, activated human p38 kinase alpha phosphorylates a biotinylated substrate, PHAS-I (phosphorylated heat and acid stable protein-insulin inducible), in the presence of gamma ^32P-ATP (^32P-ATP). PHAS-I was biotinylated prior to the assay and provides a means of capturing the substrate which is phosphorylated during the assay. p38 Kinase was activated by MKK6. Compounds were tested in 10 fold serial dilutions over the range of 100 μM to 0.001 μM using 1% DMSO. Each concentration of inhibitor was tested in triplicate.\nAll reactions were carried out in 96 well polypropylene plates. Each reaction well contained 25 mM HEPES pH 7.5, 10 mM magnesium acetate and 50 μM unlabeled ATP. Activation of p38 was required to achieve sufficient signal in the assay. Biotinylated PHAS-I was used at 1-2 μg per 50 μl reaction volume, with a final concentration of 1.5 μM. Activated human p38 kinase alpha was used at 1 μg per 50 μl reaction volume representing a final concentration of 0.3 μM. […]\nFollowing incubation, 20 μl of reaction mixture was transferred to a high capacity streptavidin coated filter plate (SAM-streptavidin-matrix, Promega) prewetted with phosphate buffered saline. […] The plates were sealed and counted."}, "human p38 kinase alpha [2]": {"molecular_target": "T1, human p38 kinase alpha", "assay": "p38α in vitro kinase assay, EGFRP procedure", "assay_type": "biochemical", "experimental": "A second assay format was also employed that is based on p38 kinase alpha induced phosphorylation of EGFRP (epidermal growth factor receptor peptide, a 21 mer) in the presence of ^33P-ATP. Compounds were tested in 10 fold serial dilutions over the range of 100 μM to 0.001 μM in 1% DMSO. Each concentration of inhibitor was tested in triplicate. Compounds were evaluated in 50 μl reaction volumes in the presence of 25 mM Hepes pH 7.5, 10 mM magnesium acetate, 4% glycerol, 0.4% bovine serum albumin, 0.4 mM DTT, 50 μM unlabeled ATP, 25 μg EGFRP (200 μM), and 0.05 uCi gamma ^33P-ATP. Reactions were initiated by addition of 0.09 μg of activated, purified human GST-p38 kinase alpha. Activation was carried out using GST-MKK6 (5:1,p38:MKK6) for one hour at 30° C. in the presence of 50 μM ATP. Following incubation for 60 minutes at room temperature, the reaction was stopped by addition of 150 μl of AG 1×8 resin in 900 mM sodium formate buffer, pH 3.0 (1 volume resin to 2 volumes buffer). The mixture was mixed three times with pipetting and the resin was allowed to settle. A total of 50 μl of clarified solution head volume was transferred from the reaction wells to Microlite-2 plates. 150 μl of Microscint 40 was then added to each well of the Microlite plate, and the plate was sealed, mixed, and counted."}, "[3]": {"tested_on": "TNF-α release by U937 cells", "assay": "LPS stimulation of TNF production by U937 cells", "assay_type": "cell-based", "conditions": "Homo sapiens, U-937; LPS-stimulated differentiated U937 cells, TNF-α by ELISA after 4 hour incubation; read-out: TNF Cell IC50", "experimental": "U937 cells (ATCC) were propagated in RPMI 1640 containing 10% fetal bovine serum, 100 IU/ml penicillin, 100 μg/ml streptomycin, and 2 mM glutamine (Gibco). Fifty million cells in 100 ml media were induced to terminal monocytic differentiation by 24 hour incubation with 20 ng/ml phorbol 12-myristate 13-acetate (Sigma). The cells were washed by centrifugation (200×g for 5 min) and resuspended in 100 ml fresh medium. After 24-48 hours, the cells were harvested, centrifuged, and resuspended in culture medium at 2 million cells/ml.\nU937 cells (0.1 ml, 2 million/ml) were incubated with 0.1 ml compound (0.004-50 μM, final concentration) for 1 hour in 96 well microtiter plates. Compounds were prepared as 10 mM stock solutions in DMSO and diluted in culture medium to yield a final DMSO concentration of 0.1% in the cell assay. LPS (E coli, 100 ng/ml final concentration) was then added at a volume of 0.02 ml. After 4 hour incubation at 37° C., the amount of TNF-α released in the culture medium was quantitated by ELISA. Inhibitory potency is expressed as IC50 (μM)."}}, "data": [{"smiles": "Cc1n[nH]c(/C=C/c2ccccc2)c1-c1ccncc1", "note": "[Example 1, 4-[3-Methyl-5-(2-phenylethenyl)-1H-pyrazol-4-yl]pyridine]", "values": [{"measurement": "IC50", "setting": "human p38 kinase alpha [1]", "result": 8700, "unit": "nM"}, {"measurement": "IC50", "setting": "human p38 kinase alpha [2]", "result": 660, "unit": "nM"}, {"measurement": "IC50", "setting": "[3]", "result": 600, "unit": "nM"}]}, {"smiles": "Cc1n[nH]c(CCc2ccccc2)c1-c1ccncc1", "note": "[Example 2, 4-[3-Methyl-5-(2-phenylethyl)-1H-pyrazol-4-yl]pyridine]", "values": [{"measurement": "IC50", "setting": "human p38 kinase alpha [1]", "result": 1000, "unit": "nM"}, {"measurement": "IC50", "setting": "human p38 kinase alpha [2]", "result": 2800, "unit": "nM"}, {"measurement": "IC50", "setting": "[3]", "result": 2300, "unit": "nM"}]}, {"smiles": "c1ccc(CCc2n[nH]cc2-c2ccncc2)cc1", "note": "[Example 3, 4-[5-(2-phenylethyl)-1H-pyrazol-4-yl]pyridine]", "values": [{"measurement": "melting point", "result": "125 to 131", "unit": "°C"}]}]}
